Source: patent publication US12077503B2, “Substituted cyclic amides and their use as herbicides” (FMC CORPORATION, priority 2015, dated 2024)

Experiments:
Type in all cases: in vivo
[1] = system: barnyardgrass (Echinochloa crus-galli); experiment: Test B flooded paddy test; settings: Flood, 250 g ai/ha; 0 to 100 scale where 0 is no effect and 100 is complete control; 13 to 15 d
Method in brief: (§1)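 Rating scale 0–100 (visual, vs untreated controls) after a 13–15 d greenhouse period; application to the flood layer, 3 cm above soil and maintained; plants at 2-leaf stage when treated.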

[2] = system: rice (Oryra sativa); experiment: Test B flooded paddy test; settings: Flood, 250 g ai/ha; 0 to 100 scale where 0 is no effect and 100 is complete control; 13 to 15 d
Method in brief: as §1

[3] = system: sedge, umbrella (small-flower umbrella sedge, Cyperus difformis); experiment: Test B flooded paddy test; settings: Flood, 250 g ai/ha; for Plant response rating, Sedge, Umbrella: 0 to 100 scale where 0 is no effect and 100 is complete control, 13 to 15 d
Method in brief: as §1

[4] = system: ducksalad (Heteranthera limosa); experiment: Test B flooded paddy test; settings: Flood, 250 g ai/ha; 0 to 100 scale where 0 is no effect and 100 is complete control; 13 to 15 d
Method in brief: as §1

[5] = system: barnyardgrass (Echinochloa crus-galli); experiment: Test A preemergence
Method in brief: (§2)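 Treatment is preemergence as a directed soil spray after planting, or postemergence at the one- to two-leaf stage, with test chemical in a non-phytotoxic solvent mixture plus surfactant. Plants stay in the greenhouse about 10 d before visual injury scoring on a 0 to 100 scale versus untreated controls.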

[6] = system: ragweed (common ragweed, Ambrosia elatior); experiment: Test A preemergence
Method in brief: as §2

[7] = system: pigweed (Amaranthus retroflexus); experiment: Test A preemergence
[8] = system: giant foxtail (Setaria faberii); experiment: Test A preemergence
Method in brief: as §2

[9] = system: Kochia (Kochia scoparia); experiment: Test A preemergence
Method in brief: as §2

[10] = system: ryegrass, Italian (Italian ryegrass, Lolium multiflorum); experiment: Test A preemergence
Method in brief: as §2

[11] = system: barnyardgrass (Echinochloa crus-galli); experiment: Test A postemergence
Method in brief: as §2

[12] = system: Galium (catchweed bedstraw, Galium aparine); experiment: Test A postemergence
Method in brief: as §2

[13] = system: ragweed (common ragweed, Ambrosia elatior); experiment: Test A postemergence
Method in brief: as §2

[14] = system: pigweed (Amaranthus retroflexus); experiment: Test A postemergence
Method in brief: as §2

[15] = system: giant foxtail (Setaria faberii); experiment: Test A postemergence
Method in brief: as §2

[16] = system: blackgrass (Alopecurus myosuroides); experiment: Test A postemergence
Method in brief: as §2

[17] = system: Kochia (Kochia scoparia); experiment: Test A postemergence
Method in brief: as §2

[18] = system: wheat (Triticum aestivum); experiment: Test A postemergence
Method in brief: as §2

[19] = system: ryegrass, Italian (Italian ryegrass, Lolium multiflorum); experiment: Test A postemergence
Method in brief: as §2

[20] = system: corn (Zea mays); experiment: Test A postemergence
Method in brief: as §2

[21] = 125 g ai/ha, Preemergence, visual injury after approximately 10 d, 0 to 100 scale where 0 is no effect and 100 is complete control
[22] = 500 g ai/ha, preemergence, 0 to 100 scale, 0 = no effect, 100 = complete control
[23] = 125 g ai/ha, postemergence, visual rating after approx. 10 d, 0 to 100 scale (0 no effect, 100 complete control)
[24] = 500 g ai/ha, postemergence, visual injury, 0 to 100 scale (0 no effect, 100 complete control), approx. 10 d
[25] = 125 g ai/ha, preemergence, visual rating after approx. 10 d, 0 to 100 scale where 0 is no effect and 100 is complete control
[26] = 125 g ai/ha, postemergence, visual injury after approximately 10 d, 0 to 100 scale (0 no effect, 100 complete control)
[27] = 125 g ai/ha, preemergence, 0 to 100 scale (0 no effect, 100 complete control)
[28] = Preemergence, 500 g ai/ha, 0 is no effect, 100 is complete control
[29] = 500 g ai/ha, postemergence, 0 to 100 scale, 0 no effect, 100 complete control
[30] = Postemergence, 125 g ai/ha, visual injury, 0 to 100 scale (0 no effect, 100 complete control), approx. 10 d

SMILES: O=C1NCC(c2csc(Br)c2)C1C(=O)Nc1ccccc1F (stereo not drawn) [Compound 648]
- Plant response rating, Barnyardgrass [1]: 20
- Plant response rating, Rice [2]: 20
- Plant response rating, Sedge, Umbrella [3]: 0
- Plant response rating, Ducksalad [4]: 100
- Plant response rating, Barnyardgrass [5, 21]: 70
- Plant response rating, Barnyardgrass [5, 22]: 90
- Plant response rating, Ragweed [6, 21]: 0
- Plant response rating, Ragweed [6, 22]: 20
- Plant response rating, Pigweed [7, 21]: 0
- Plant response rating, Pigweed [7, 22]: 40
- Plant response rating, Foxtail, Giant [8, 21]: 60
- Plant response rating, Foxtail, Giant [8, 22]: 80
- Plant response rating, Kochia [9, 21]: 0
- Plant response rating, Kochia [9, 22]: 50
- Plant response rating, Ryegrass, Italian [10, 21]: 30
- Plant response rating, Ryegrass, Italian [10, 22]: 40
- Plant response rating, Barnyardgrass [11, 23]: 70
- Plant response rating, Barnyardgrass [11, 24]: 80
- Plant response rating, Galium [12, 23]: 20
- Plant response rating, Galium [12, 24]: 60
- Plant response rating, Ragweed [13, 23]: 0
- Plant response rating, Ragweed [13, 24]: 30
- Plant response rating, Pigweed [14, 23]: 30
- Plant response rating, Pigweed [14, 24]: 50
- Plant response rating, Foxtail, Giant [15, 23]: 10
- Plant response rating, Foxtail, Giant [15, 24]: 50
- Plant response rating, Blackgrass [16, 23]: 30
- Plant response rating, Blackgrass [16, 24]: 50
- Plant response rating, Kochia [17, 23]: 0
- Plant response rating, Kochia [17, 24]: 0
- Plant response rating, Wheat [18, 23]: 0
- Plant response rating, Wheat [18, 24]: 0
- Plant response rating, Ryegrass, Italian [19, 23]: 30
- Plant response rating, Ryegrass, Italian [19, 24]: 50
- Plant response rating, Corn [20, 23]: 0
- Plant response rating, Corn [20, 24]: 0

SMILES: CN1CC(c2ccc(C(C)(F)F)cc2)C(C(=O)Nc2ccccc2S(C)(=O)=O)C1=O (stereo not drawn) [Compound 692]
- Plant response rating, Barnyardgrass [1]: 0
- Plant response rating, Rice [2]: 0
- Sedge, Umbrella plant response rating ([3]; scale of 0 to 100 where 0 is no effect and 100 is complete control): 0
- Plant response rating, Ducksalad [4]: 20
- Plant response rating, Barnyardgrass [5, 21]: 70
- Plant response rating, Barnyardgrass [5, 22]: 90
- Plant response rating, Ragweed [6, 25]: 50
- Plant response rating, Ragweed [6, 22]: 70
- Plant response rating, Pigweed [7, 25]: 80
- Plant response rating, Pigweed [7, 22]: 90
- Plant response rating, Foxtail, Giant [8, 21]: 80
- Plant response rating, Foxtail, Giant [8, 22]: 90
- Plant response rating, Kochia [9, 21]: 70
- Plant response rating, Kochia [9, 22]: 80
- Plant response rating, Ryegrass, Italian [10, 25]: 20
- Plant response rating, Ryegrass, Italian [10, 22]: 60
- Plant response rating, Barnyardgrass [11, 23]: 70
- Plant response rating, Barnyardgrass [11, 24]: 80
- Plant response rating, Galium [12, 26]: 0
- Plant response rating, Galium [12, 24]: 60
- Plant response rating, Ragweed [13, 26]: 0
- Plant response rating, Ragweed [13, 24]: 30
- Plant response rating, Pigweed [14, 26]: 40
- Plant response rating, Pigweed [14, 24]: 50
- Plant response rating, Foxtail, Giant [15, 26]: 70
- Plant response rating, Foxtail, Giant [15, 24]: 80
- Plant response rating, Blackgrass [16, 23]: 50
- Plant response rating, Blackgrass [16, 24]: 60
- Plant response rating, Kochia [17, 26]: 40
- Plant response rating, Kochia [17, 24]: 60
- Plant response rating, Wheat [18, 26]: 0
- Plant response rating, Wheat [18, 24]: 50
- Plant response rating, Ryegrass, Italian [19, 26]: 50
- Plant response rating, Ryegrass, Italian [19, 24]: 60
- Plant response rating, Corn [20, 26]: 0
- Plant response rating, Corn [20, 24]: 50

SMILES: Cc1ccc(C2CNC(=O)C2C(=O)Nc2ccc(F)cc2F)cc1F (racemic) [Compound 370]
- Plant response rating, Barnyardgrass [1]: 60
- Plant response rating, Rice [2]: 0
- Plant response rating, Sedge, Umbrella [3]: 30
- Plant response rating, Ducksalad [4]: 100
- Plant response rating, Barnyardgrass [5, 27]: 90
- Barnyardgrass plant response rating (0 to 100 scale) [5, 28]: 90
- Plant response rating, Ragweed [6, 27]: 0
- Ragweed plant response rating (0 to 100 scale) [6, 28]: 20
- Plant response rating, Pigweed [7, 27]: 0
- Pigweed plant response rating (0 to 100 scale) [7, 28]: 0
- Plant response rating, Foxtail, Giant [8, 27]: 90
- Foxtail, Giant plant response rating (0 to 100 scale) [8, 28]: 90
- Plant response rating, Kochia [9, 27]: 0
- Kochia plant response rating (0 to 100 scale) [9, 28]: 30
- Plant response rating, Ryegrass, Italian [10, 27]: 0
- Ryegrass, Italian plant response rating (0 to 100 scale) [10, 28]: 0
- Plant response rating, Barnyardgrass [11, 29]: 90
- Plant response rating, Barnyardgrass [11, 30]: 80
- Plant response rating, Galium [12, 29]: 60
- Plant response rating, Galium [12, 30]: 20
- Plant response rating, Ragweed [13, 29]: 50
- Plant response rating, Ragweed [13, 30]: 0
- Plant response rating, Pigweed [14, 29]: 0
- Plant response rating, Pigweed [14, 30]: 0
- Plant response rating, Foxtail, Giant [15, 29]: 70
- Plant response rating, Foxtail, Giant [15, 30]: 40
- Plant response rating, Blackgrass [16, 29]: 40
- Plant response rating, Blackgrass [16, 30]: 0
- Plant response rating, Kochia [17, 29]: 0
- Plant response rating, Kochia [17, 30]: 0
- Plant response rating, Wheat [18, 29]: 20
- Plant response rating, Wheat [18, 30]: 0
- Plant response rating, Ryegrass, Italian [19, 29]: 20
- Plant response rating, Ryegrass, Italian [19, 30]: 0
- Plant response rating, Corn [20, 29]: 20
- Plant response rating, Corn [20, 30]: 0
